According to publication PMC11604427 (Frontiers in Pharmacology, 2024):

Assays:
Assay in all cases: SelectScreen kinase selectivity assay
Assay type in all cases: biochemical
[1] = target: T1, MST1R (Homo sapiens, UniProt Q04912)
T1 construct: purchased Thermo Fisher Scientific (SelectScreen service)
Method: (§1) The kinase selectivity analysis of PKHD-5 was performed using the SelectScreen kinase analysis service provided by Thermo Fisher Scientific. The experiment initially involved the preparation of a series of inhibitor solutions at varying concentrations, which were then reacted with various kinase targets under standardized conditions to calculate the percentage inhibition for each test solution. Ultimately, the IC50 values were calculated based on the concentration-inhibition curves by fitting a four-parameter logistic curve, thereby assessing the potency and selectivity of the inhibitors. The analysis results are detailed in Supplementary Table S1.

[2] = target: T2, FGFR3 (Homo sapiens, UniProt P22607)
T2 construct: purchased Thermo Fisher Scientific (SelectScreen service)
Method: as §1

[3] = target: T3, LTK (Homo sapiens, UniProt P29376)
T3 construct: purchased Thermo Fisher Scientific (SelectScreen service)
Method: as §1

[4] = target: T4, INSR (Homo sapiens, UniProt P06213)
T4 construct: purchased Thermo Fisher Scientific (SelectScreen service)
T4 sequence (P06213 28-1382): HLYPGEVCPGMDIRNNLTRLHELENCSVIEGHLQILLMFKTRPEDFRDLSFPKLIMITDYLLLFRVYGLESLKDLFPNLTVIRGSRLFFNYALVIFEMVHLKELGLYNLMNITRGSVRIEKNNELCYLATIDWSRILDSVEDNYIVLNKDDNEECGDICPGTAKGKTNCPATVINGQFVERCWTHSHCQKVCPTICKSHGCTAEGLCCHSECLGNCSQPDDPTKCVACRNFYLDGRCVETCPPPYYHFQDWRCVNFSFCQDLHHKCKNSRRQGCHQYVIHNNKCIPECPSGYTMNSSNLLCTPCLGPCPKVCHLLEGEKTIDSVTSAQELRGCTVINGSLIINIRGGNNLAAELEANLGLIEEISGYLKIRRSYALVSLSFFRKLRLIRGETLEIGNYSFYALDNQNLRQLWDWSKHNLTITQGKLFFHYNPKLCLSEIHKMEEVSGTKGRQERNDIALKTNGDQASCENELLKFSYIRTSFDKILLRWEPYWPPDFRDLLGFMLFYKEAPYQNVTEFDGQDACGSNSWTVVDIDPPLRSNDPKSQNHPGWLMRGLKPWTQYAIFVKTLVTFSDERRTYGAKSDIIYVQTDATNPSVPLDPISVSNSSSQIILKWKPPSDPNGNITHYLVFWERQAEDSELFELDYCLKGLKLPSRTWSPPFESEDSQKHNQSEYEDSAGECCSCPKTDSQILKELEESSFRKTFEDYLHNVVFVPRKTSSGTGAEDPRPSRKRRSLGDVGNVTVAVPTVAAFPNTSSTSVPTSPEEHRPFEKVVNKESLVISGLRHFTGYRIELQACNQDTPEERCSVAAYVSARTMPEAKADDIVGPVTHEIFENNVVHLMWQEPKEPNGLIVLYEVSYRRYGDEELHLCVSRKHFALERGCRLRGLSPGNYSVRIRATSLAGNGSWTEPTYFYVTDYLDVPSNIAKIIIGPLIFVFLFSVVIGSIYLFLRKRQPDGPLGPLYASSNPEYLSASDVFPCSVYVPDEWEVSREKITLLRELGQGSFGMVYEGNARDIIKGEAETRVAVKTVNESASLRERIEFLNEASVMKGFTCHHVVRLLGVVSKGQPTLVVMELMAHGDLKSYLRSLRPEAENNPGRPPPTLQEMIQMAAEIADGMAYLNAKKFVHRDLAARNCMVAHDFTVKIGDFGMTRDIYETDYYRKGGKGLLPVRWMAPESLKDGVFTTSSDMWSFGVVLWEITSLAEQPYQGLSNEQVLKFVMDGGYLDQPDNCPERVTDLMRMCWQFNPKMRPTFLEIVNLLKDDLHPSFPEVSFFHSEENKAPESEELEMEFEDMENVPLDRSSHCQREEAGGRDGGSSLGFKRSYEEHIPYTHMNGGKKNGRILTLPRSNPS
Method: as §1

[5] = target: T5, BLK (Homo sapiens, UniProt P51451)
T5 construct: purchased Thermo Fisher Scientific (SelectScreen service)
T5 sequence (P51451 whole entry): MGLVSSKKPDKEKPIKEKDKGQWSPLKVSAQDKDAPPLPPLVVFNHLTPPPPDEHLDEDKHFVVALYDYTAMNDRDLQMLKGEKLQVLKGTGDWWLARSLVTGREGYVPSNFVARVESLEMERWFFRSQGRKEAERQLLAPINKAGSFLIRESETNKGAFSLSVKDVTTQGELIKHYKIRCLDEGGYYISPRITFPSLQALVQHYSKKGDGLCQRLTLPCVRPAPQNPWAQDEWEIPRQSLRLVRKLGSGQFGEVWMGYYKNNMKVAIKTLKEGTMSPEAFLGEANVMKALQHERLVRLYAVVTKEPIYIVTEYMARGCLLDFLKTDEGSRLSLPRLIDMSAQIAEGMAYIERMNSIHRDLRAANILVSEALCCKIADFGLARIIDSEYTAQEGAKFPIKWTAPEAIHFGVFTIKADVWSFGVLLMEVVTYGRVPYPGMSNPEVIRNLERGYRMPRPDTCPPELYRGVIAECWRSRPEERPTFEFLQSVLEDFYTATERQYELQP
Method: as §1

[6] = target: T6, YES1 (Homo sapiens, UniProt P07947)
T6 construct: purchased Thermo Fisher Scientific (SelectScreen service)
T6 sequence (P07947 whole entry): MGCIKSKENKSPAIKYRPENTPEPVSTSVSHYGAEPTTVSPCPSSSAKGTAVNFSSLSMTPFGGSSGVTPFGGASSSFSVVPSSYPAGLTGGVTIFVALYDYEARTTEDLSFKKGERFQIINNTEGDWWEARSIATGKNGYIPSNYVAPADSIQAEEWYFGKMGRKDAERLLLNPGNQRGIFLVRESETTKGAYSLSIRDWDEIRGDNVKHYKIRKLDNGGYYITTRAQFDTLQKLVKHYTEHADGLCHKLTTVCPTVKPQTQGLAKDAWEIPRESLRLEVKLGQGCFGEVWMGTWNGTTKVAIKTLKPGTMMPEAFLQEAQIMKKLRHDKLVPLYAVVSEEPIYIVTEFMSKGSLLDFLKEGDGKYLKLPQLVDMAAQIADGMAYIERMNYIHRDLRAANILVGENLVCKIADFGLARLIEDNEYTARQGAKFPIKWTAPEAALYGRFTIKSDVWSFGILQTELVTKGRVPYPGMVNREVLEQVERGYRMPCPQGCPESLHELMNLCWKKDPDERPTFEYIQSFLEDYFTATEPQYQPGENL
Method: as §1

[7] = target: T7, PLK3 (Homo sapiens, UniProt Q9H4B4)
T7 construct: purchased Thermo Fisher Scientific (SelectScreen service)
Method: as §1

[8] = target: T8, ITK (Homo sapiens, UniProt Q08881)
T8 construct: purchased Thermo Fisher Scientific (SelectScreen service)
Method: as §1

[9] = target: T9, PIM1 (Homo sapiens, UniProt P11309)
T9 construct: purchased Thermo Fisher Scientific (SelectScreen service)
Method: as §1

[10] = target: T10, DDR2 (Homo sapiens, UniProt Q16832)
T10 construct: purchased Thermo Fisher Scientific (SelectScreen service)
T10 sequence (Q16832 22-855): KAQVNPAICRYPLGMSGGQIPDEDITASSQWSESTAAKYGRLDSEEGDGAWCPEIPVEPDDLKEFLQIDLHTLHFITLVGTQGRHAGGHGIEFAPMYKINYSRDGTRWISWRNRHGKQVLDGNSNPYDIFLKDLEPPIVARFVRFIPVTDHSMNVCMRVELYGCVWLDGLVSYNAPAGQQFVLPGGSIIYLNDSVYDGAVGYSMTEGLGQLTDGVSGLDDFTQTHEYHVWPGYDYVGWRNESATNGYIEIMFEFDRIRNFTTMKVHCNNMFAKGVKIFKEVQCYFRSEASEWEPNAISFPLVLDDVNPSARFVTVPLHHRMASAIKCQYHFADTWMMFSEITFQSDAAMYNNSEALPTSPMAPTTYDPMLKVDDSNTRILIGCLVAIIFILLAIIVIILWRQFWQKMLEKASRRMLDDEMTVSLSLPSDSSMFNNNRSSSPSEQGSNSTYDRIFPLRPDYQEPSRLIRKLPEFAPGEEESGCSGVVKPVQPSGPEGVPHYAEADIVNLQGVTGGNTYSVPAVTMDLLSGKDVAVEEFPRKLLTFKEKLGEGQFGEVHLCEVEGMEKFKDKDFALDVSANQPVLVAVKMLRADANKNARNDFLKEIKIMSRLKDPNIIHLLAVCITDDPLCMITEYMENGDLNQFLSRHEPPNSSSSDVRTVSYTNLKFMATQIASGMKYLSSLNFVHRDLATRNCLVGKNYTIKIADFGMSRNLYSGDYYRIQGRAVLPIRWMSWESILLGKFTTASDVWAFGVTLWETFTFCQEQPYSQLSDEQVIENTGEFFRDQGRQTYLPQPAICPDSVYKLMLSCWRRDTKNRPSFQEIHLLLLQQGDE
Method: as §1

[11] = target: T11, ERBB2 (Homo sapiens, UniProt P04626)
T11 construct: purchased Thermo Fisher Scientific (SelectScreen service)
Method: as §1

[12] = target: T12, CDK1 (Homo sapiens, UniProt P06493)
T12 construct: purchased Thermo Fisher Scientific (SelectScreen service)
Method: as §1

[13] = target: T13, EPHA2 (Homo sapiens, UniProt P29317)
T13 construct: purchased Thermo Fisher Scientific (SelectScreen service)
Method: as §1

[14] = target: T14, NTRK3 (Homo sapiens, UniProt Q16288)
T14 construct: purchased Thermo Fisher Scientific (SelectScreen service)
Method: as §1

[15] = target: T15, BMX (Homo sapiens, UniProt P51813)
T15 construct: purchased Thermo Fisher Scientific (SelectScreen service)
Method: as §1

[16] = target: T16, PTK2 (Homo sapiens, UniProt Q05397)
T16 construct: purchased Thermo Fisher Scientific (SelectScreen service)
Method: as §1

[17] = target: T17, TYRO3 (Homo sapiens, UniProt Q06418)
T17 construct: purchased Thermo Fisher Scientific (SelectScreen service)
Method: as §1

[18] = target: T18, LYN (Homo sapiens, UniProt P07948)
T18 construct: purchased Thermo Fisher Scientific (SelectScreen service)
Method: as §1

[19] = target: T19, PLK2 (Homo sapiens, UniProt Q9NYY3)
T19 construct: purchased Thermo Fisher Scientific (SelectScreen service)
Method: as §1

[20] = target: T20, FRK (Homo sapiens, UniProt P42685)
T20 construct: purchased Thermo Fisher Scientific (SelectScreen service)
Method: as §1

[21] = target: T21, FGR (Homo sapiens, UniProt P09769)
T21 construct: purchased Thermo Fisher Scientific (SelectScreen service)
T21 sequence (P09769 whole entry): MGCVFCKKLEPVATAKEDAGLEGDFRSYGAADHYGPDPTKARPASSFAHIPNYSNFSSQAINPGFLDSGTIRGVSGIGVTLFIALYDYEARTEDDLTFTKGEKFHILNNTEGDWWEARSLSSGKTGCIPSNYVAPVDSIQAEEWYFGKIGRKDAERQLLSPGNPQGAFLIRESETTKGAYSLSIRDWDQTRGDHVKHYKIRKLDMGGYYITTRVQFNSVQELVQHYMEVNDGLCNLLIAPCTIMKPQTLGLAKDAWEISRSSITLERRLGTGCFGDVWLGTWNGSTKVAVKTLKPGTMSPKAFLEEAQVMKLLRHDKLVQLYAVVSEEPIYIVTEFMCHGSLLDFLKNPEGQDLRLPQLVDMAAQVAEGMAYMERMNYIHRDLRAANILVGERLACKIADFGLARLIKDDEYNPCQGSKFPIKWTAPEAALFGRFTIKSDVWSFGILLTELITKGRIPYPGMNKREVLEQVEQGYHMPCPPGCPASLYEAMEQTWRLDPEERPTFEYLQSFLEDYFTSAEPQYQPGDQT
Method: as §1

[22] = target: T22, ABL1 (Homo sapiens, UniProt P00519)
T22 construct: purchased Thermo Fisher Scientific (SelectScreen service)
Method: as §1

[23] = target: T23, MERTK (Homo sapiens, UniProt Q12866)
T23 construct: purchased Thermo Fisher Scientific (SelectScreen service)
Method: as §1

[24] = target: T24, ERBB4 (Homo sapiens, UniProt Q15303)
T24 construct: purchased Thermo Fisher Scientific (SelectScreen service)
T24 sequence (Q15303 26-1308): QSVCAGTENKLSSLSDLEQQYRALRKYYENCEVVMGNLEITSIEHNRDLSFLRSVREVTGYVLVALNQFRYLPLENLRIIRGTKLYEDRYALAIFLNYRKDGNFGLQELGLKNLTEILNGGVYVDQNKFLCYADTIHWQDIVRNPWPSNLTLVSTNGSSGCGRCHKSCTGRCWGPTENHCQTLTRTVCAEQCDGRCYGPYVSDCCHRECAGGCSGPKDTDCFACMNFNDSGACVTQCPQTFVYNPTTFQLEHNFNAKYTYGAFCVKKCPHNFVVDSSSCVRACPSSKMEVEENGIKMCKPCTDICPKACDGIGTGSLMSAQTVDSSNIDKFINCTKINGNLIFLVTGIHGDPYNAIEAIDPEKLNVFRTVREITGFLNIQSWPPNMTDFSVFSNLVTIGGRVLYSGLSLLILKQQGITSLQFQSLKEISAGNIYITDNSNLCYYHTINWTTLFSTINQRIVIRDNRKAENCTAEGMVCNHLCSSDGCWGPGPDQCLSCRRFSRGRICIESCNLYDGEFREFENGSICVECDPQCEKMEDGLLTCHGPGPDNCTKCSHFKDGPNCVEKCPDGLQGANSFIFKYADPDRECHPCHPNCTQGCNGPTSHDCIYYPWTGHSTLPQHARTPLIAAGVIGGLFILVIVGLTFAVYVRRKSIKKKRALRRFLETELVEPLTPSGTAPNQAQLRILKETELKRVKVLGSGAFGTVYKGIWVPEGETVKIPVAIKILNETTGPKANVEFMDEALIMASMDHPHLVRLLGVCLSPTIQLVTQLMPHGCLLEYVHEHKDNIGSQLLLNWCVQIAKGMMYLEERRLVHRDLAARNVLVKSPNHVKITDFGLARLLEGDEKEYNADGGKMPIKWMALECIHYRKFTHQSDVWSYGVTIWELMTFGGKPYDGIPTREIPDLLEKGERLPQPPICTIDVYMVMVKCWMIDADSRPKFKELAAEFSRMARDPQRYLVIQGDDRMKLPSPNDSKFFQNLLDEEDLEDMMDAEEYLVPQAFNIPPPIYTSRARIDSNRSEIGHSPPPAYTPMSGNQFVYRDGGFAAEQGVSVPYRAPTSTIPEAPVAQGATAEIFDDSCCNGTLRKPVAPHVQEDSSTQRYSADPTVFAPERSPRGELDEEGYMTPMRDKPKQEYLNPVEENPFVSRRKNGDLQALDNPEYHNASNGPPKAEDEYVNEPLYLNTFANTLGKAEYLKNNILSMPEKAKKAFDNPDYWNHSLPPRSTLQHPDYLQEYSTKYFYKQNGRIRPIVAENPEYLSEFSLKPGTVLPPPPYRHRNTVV
Method: as §1

[25] = target: T25, BTK (Homo sapiens, UniProt Q06187)
T25 construct: purchased Thermo Fisher Scientific (SelectScreen service)
Method: as §1

[26] = target: T26, FES (Homo sapiens, UniProt P07332)
T26 construct: purchased Thermo Fisher Scientific (SelectScreen service)
Method: as §1

[27] = target: T27, MET (Homo sapiens, UniProt P08581)
T27 construct: purchased Thermo Fisher Scientific (SelectScreen service)
Method: as §1

[28] = target: T28, EPHB1 (Homo sapiens, UniProt P54762)
T28 construct: purchased Thermo Fisher Scientific (SelectScreen service)
Method: as §1

[29] = target: T29, DDR1 (Homo sapiens, UniProt Q08345)
T29 construct: purchased Thermo Fisher Scientific (SelectScreen service)
Method: as §1

[30] = target: T30, PLK1 (Homo sapiens, UniProt P53350)
T30 construct: purchased Thermo Fisher Scientific (SelectScreen service)
Method: as §1

[31] = target: T31, ZAK (Homo sapiens, UniProt Q9NYL2)
T31 construct: purchased Thermo Fisher Scientific (SelectScreen service)
Method: as §1

[32] = target: T32, EPHA6 (Homo sapiens, UniProt Q9UF33)
T32 construct: purchased Thermo Fisher Scientific (SelectScreen service)
Method: as §1

[33] = target: T33, PDGFRA (Homo sapiens, UniProt P16234)
T33 construct: purchased Thermo Fisher Scientific (SelectScreen service)
Method: as §1

[34] = target: T34, EPHA3 (Homo sapiens, UniProt P29320)
T34 construct: purchased Thermo Fisher Scientific (SelectScreen service)
Method: as §1

[35] = target: T35, ZAP70 (Homo sapiens, UniProt P43403)
T35 construct: purchased Thermo Fisher Scientific (SelectScreen service)
Method: as §1

[36] = target: T36, EPHA1 (Homo sapiens, UniProt P21709)
T36 construct: purchased Thermo Fisher Scientific (SelectScreen service)
Method: as §1

[37] = target: T37, NTRK2 (Homo sapiens, UniProt Q16620)
T37 construct: purchased Thermo Fisher Scientific (SelectScreen service)
Method: as §1

[38] = target: T38, ALK (Homo sapiens, UniProt Q9UM73)
T38 construct: purchased Thermo Fisher Scientific (SelectScreen service)
Method: as §1

[39] = target: T39, KIT (Homo sapiens, UniProt P10721)
T39 construct: purchased Thermo Fisher Scientific (SelectScreen service)
Method: as §1

[40] = target: T40, EPHB2 (Homo sapiens, UniProt P29323)
T40 construct: purchased Thermo Fisher Scientific (SelectScreen service)
Method: as §1

[41] = target: T41, ROS1 (Homo sapiens, UniProt P08922)
T41 construct: purchased Thermo Fisher Scientific (SelectScreen service)
Method: as §1

[42] = target: T42, JAK1 (Homo sapiens, UniProt P23458)
T42 construct: purchased Thermo Fisher Scientific (SelectScreen service)
Method: as §1

Measured: IC50

Cc1ccc(O)c(C)c1-n1c(N)c(C(N)=O)c2cc(CCCCCC(=O)NO)c(C)nc21 [PKHD-5]
> 50 µM: [1] | [2] | [3] | [4] | [5] | [6] | [7] | [8] | [9] | [10] | [11] | [12] | [13] | [14] | [15] | [16] | [17] | [18] | [19] | [20] | [21] | [22] | [23] | [24] | [25] | [26] | [27] | [28] | [29] | [30] | [31] | [32] | [33] | [34] | [35] | [36] | [37] | [38] | [39] | [40] | [41] | [42]
